pEC50, pIC50: −log10 of the molar value. Entries after “also recorded” stand apart in the source; their conditions may differ.
Columns and labels:
Human recombinant dCK = Human recombinant dCK (Homo sapiens, UniProt P27707); experiment: dCK inhibition curve with deoxyinosine as substrate; type: biochemical; settings: deoxyinosine (dIR) substrate, duplicate
Method: Inhibiting the activity of the dCK enzyme is useful. […] Human recombinant dCK activity was characterized using deoxyinosine (dIR) as a substrate. Assays were performed in duplicate in 200 μL of reaction mixture (96-well plate). Reactions were started by adding dIR at various concentrations and the percent inhibition was determined as compared to the positive control via spectrophotometer. […] (See FIG. 35).

[1] = in vivo; cited from earlier work
HIV [2] = experiment: Inhibition of HIV replication in experimental T cell cancer lines; type: cell-based
[3] = tested on: vsv-g pseudotyped HIV-1 virus; type: cell-based
HIV [4] = experiment: EC50 stated in embodiments, test not specified; type: cell-based
HIV-1 (wt) = experiment: Inhibition of HIV replication in primary peripheral blood mononuclear cells (p24 ELISA); type: cell-based; settings: Human immunodeficiency virus 1, PBMC, read-out: EC50, inhibition of HIV replication
Method: Human peripheral blood mononuclear cells (PBMCs) purified from donors were cultured (RPMI+10% FBS) and stimulated pre-infection (24 hrs) and every 3 days for three weeks with 2 ng/ml of phytoheaemagglutinin (PHA) and 1 U/ml IL-2. 24 hours following the initial stimulation the samples were incubated for one hour with the indicated amounts of NSC166641 and then infected with 300 ng HIV-1 (wt). Samples were analyzed via ELISA p24. (See FIG. 7).

[5] = tested on: vsv-g pseudotyped HIV-1 virus; type: cell-based; remark: listed apart in the source
cells = settings: cited from earlier work
[6] = target: T1, reverse transcriptase (RT) (Human immunodeficiency virus type 1 group M subtype B, UniProt P03366); experiment: Roche reverse transcriptase assay kit; type: biochemical; settings: indicated amounts
T1 construct: Results of the Roche reverse transcriptase (AT) assay kit; purchased Roche
Method: Results of the Roche reverse transcriptase […] assay kit utilizing the indicated amounts of NSC166641. RT activity was measured as a percentage compared to the positive control. […] (See FIG. 9).

HIV-1 (wt) virus = type: cell-based
Method: G11 HIV reporter cells (200K) were seeded in 5 ml falcon tubes (RPMI+10% FBS) and incubated with the indicated amounts of NSC129220 (CAS 10212-28-9) for one hour before infection with HIV-1 (wt) virus (250 ng). Samples were stained with propidium iodide and analyzed for GFP expression via flow cytometer at 48 and 72 hours post infection. (See FIG. 2).
Example FACS dot plots of live G11 cells expressing HIV induced expression of GFP. […] (See FIG. 27).

Human recombinant dCK, sequence (P27707 whole entry): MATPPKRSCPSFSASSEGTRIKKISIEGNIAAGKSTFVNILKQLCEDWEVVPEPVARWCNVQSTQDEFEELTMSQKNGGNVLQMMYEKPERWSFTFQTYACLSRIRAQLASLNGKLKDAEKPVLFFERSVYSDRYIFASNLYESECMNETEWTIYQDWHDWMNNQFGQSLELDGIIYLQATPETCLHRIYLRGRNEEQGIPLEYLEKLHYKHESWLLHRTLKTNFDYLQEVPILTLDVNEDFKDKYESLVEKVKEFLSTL

N=c1nc2n(cc1F)[C@@H]1O[C@H](CO)[C@@H](O)[C@@H]1O2 [AAFC, 5-fluoro-2,2′cyclocytidine]
pIC50 (Human recombinant dCK): 4.49
fraction of reagent passed through the body unchanged [1]: over 80%
phosphorylation compared to Ara-C [1]: less easily phosphorylated as compared to Ara-C
pEC50 (HIV [2]; Human immunodeficiency virus 1, read-out: EC50, inhibition of HIV replication, experimental T cell cancer lines): > 6.30
concentration directly inhibiting HIV replication in vitro (HIV [2]; a number of experimental cell lines and primary cells): < 500 nM
inhibition of HIV replication on post infection treatment (HIV [2]; post exposure of cells infected with HIV-1, experimental cell lines): dramatically inhibit HIV replication
rescue of luciferase expression by dC, dT or both [3]: addition of dC but not dT may be able to rescue luciferase expression in treated cells
rescue of luciferase expression by deoxycytidine [3]: Addition of dC appears to be able to rescue luciferase expression in treated cells; also recorded: Addition of dC is able to rescue luciferase expression in treated cells
pEC50 (HIV [4]; Human immunodeficiency virus 1, another aspect of embodiments, read-out: EC50): ~8.00
pEC50 (HIV [4]; Human immunodeficiency virus 1, one aspect of embodiments): ~9.15
pEC50 (HIV-1 (wt)): > 9.15
dose dependent effect on Clone 64 cells [5]: dose dependent effect
dose-dependent activity (luciferase) [5]: Dose-dependent activity was detected
lowest dose at which anti-HIV activity was seen [5]: 40 µM
reversal of cell growth inhibition by nucleosides (cells): reversed by deoxycytidine but not by thymidine and deoxyuridine
thymidine incorporation (cells): inhibited thymidine incorporation into the acid-soluble fraction (DNA) of the cells
inhibition of RT activity vs positive control [6]: little or no inhibition of RT

Cc1cn([C@H]2C[C@H](N=[N+]=[N-])[C@@H](CO)O2)c(=O)[nH]c1=O [AZT, zidovudine]
dose dependent effect on Clone 64 cells [5]: dose dependent effect

O=C(O)c1ccccc1 [Benzoic acid]
anti-HIV activity in screen (luciferase expression) [5]: Activity was not detected

CC(=O)O.N=c1ccn2c(n1)OC1C(O)C(CO)OC12 (centres unmarked) [NSC129220, O2,2′-cyclocytidine monoacetate]
cell viability (HIV-1 (wt) virus; FACS GFP assay, treated reporter cells (FIG. 27)): > 60%
inhibition of HIV induced GFP expression (confirmation of screen) (HIV-1 (wt) virus; live G11 cells, FACS dot plots): inhibition of HIV
rescue of luciferase expression by deoxycytidine [3]: Addition of dC is able to rescue luciferase expression in treated cells
dose-dependent activity (luciferase) [5]: Dose-dependent activity was detected
lowest dose at which anti-HIV activity was seen [5]: 40 µM

Cl.N=c1ccn2c(n1)O[C@H]1[C@H](O)[C@@H](CO)O[C@H]12 [O2,2′-cyclocytidine hydrochloride]
lowest dose at which anti-HIV activity was seen [5]: 40 µM

O=C1CN=C(c2ccc[nH]2)c2cc(Cl)ccc2N1 [benzodiazipen, Benzodiazepen]
anti-HIV activity in screen (luciferase expression) [5]: Anti-HIV activity was detected

CCOC(N)=O [ethyl carbamate]
anti-HIV activity in screen (luciferase expression) [5]: Activity was not detected

COc1ccc2[nH]c3c(C)c4ccncc4c(C)c3c2c1 [methoxyellipticine, Methoxyellipticine]
anti-HIV activity in screen (luciferase expression) [5]: Anti-HIV activity was detected

c1ccc2ccccc2c1 [napthalen]
anti-HIV activity in screen (luciferase expression) [5]: Activity was not detected
